Results taken from US6403594B1, “Benzopyran derivatives” (Recordati, S.A. Chemical and Pharmaceutical Company, priority 1999, dated 2002).
Like-named read-outs stand apart in the source and are kept apart here.

Key:
[1] = molecular target: T1, α1d-adrenoceptor (recombinant) (Homo sapiens, UniProt P25100); assay: Radioligand binding, cloned α1d-adrenoceptor ([3H]prazosin); details: read-out: Affinity for recombinant α1d-adrenoceptor, cloned receptors (Ki)
T1 sequence (P25100 1-572): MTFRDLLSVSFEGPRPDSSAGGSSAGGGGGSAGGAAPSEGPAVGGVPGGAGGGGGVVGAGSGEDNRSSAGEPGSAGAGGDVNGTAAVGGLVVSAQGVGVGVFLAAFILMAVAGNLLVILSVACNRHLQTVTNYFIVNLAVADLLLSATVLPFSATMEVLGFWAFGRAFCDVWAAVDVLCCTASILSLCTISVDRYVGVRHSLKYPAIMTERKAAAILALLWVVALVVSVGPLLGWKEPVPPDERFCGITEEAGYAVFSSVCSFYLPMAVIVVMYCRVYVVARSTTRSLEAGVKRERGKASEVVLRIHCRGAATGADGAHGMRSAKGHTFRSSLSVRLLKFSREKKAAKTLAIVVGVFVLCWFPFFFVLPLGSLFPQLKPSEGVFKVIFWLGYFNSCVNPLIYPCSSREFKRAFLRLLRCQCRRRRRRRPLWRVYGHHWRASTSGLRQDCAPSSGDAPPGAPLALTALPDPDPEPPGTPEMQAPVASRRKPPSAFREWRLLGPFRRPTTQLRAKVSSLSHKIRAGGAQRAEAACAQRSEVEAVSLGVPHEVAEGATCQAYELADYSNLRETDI
Procedure: (§1) Determination of affinity for cloned subtypes of α1-adrenoceptor subtypes was performed in membranes from cells transfected by electroporation with DNA expressing the genes encoding each α1-adrenoceptor subtype.
(§2) Non-specific binding was determined in the presence of 10 μM phentolamine.
(§3) Incubation was stopped by addition of ice-cold Tris buffer and rapid filtration through 0.2% polyethyleneimine-pretreated Schleicher & Schuell GF52 filters.
(§4) Data were expressed as mean Ki.

[2] = molecular target: T2, α1b-adrenoceptor (recombinant) (Homo sapiens, UniProt P35368); assay: Radioligand binding, cloned α1b-adrenoceptor ([3H]prazosin); details: read-out: Affinity for recombinant α1b-adrenoceptor, cloned receptors (Ki)
T2 construct: expressed in transfected cells
T2 sequence (P35368 1-520): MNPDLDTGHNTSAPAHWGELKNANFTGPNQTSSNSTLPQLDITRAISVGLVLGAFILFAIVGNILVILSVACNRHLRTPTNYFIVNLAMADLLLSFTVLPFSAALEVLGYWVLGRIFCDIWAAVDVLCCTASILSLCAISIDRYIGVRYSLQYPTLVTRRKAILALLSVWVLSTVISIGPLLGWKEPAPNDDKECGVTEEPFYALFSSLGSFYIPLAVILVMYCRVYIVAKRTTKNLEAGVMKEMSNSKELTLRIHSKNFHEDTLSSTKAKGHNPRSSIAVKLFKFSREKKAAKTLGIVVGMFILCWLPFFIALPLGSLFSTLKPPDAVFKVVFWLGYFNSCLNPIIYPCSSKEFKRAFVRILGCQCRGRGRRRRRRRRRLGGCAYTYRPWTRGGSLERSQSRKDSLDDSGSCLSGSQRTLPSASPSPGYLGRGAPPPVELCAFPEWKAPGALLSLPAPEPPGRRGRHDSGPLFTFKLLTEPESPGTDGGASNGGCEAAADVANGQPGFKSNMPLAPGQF
Procedure: as §1, §2, §3, §4

[3] = test system: diastolic blood pressure; assay: Lowering of diastolic blood pressure in anaesthetised dogs after i.v. administration; format: in vivo, dog
Procedure: (§5) The experiments were performed according to the method of Imagawa J. et al., J. Pharmacol. Methods 22: 103-111, 1989, with substantial modifications, as follows: adult male beagle dogs, weighing 8-10 kg, were anaesthetised with pentobarbital sodium (30 mg/kg i.v. and 2 mg/kg/h i.v.), intubated and spontaneously ventilated with room air. In order to monitor systemic blood pressure (BP), a polyethylene (PE) catheter was introduced into the aortic arch through the left femoral artery. A collateral of the left femoral vein was cannulated for infusion of anaesthetic, and the right femoral vein was cannulated for administration of compounds. For intra-arterial (i.a.) injection of noradrenaline (NA), a PE catheter was introduced into the lower portion of the abdominal aorta via the right external iliac artery. Through such procedure, NA was selectively distributed to the lower urinary tract. A paramedian vertical suprapubic incision extending from the base of the pelvis to the mid-abdominal region was made and the bladder and prostate were exposed. The bladder was manually emptied with a syringe. Prostatic urethral pressure was monitored with a Mikro-tip catheter (5F) introduced into the bladder via the external urethral meatus, and withdrawn until the pressure transducer was positioned in the prostatic region of the urethra. A ligature was secured between the neck of the bladder and urethra to isolate the response of the latter and to avoid any interaction with the bladder. Another ligature was put around the Mikro-tip catheter at the external meatus, to secure the catheter itself. After a stabilising period following the surgical procedure (30 minutes), in which arterial and prostatic urethral pressure were continuously monitored as basal values, i.a. administration of NA was made at intervals of 20 minutes. The doses of NA chosen were such to produce an increase of at least 100% in urethral pressure. The test compounds were administered i.v. in a cumulative manner with intervals of 15-20 minutes between administrations. I.a. injections of NA were repeated 5 minutes after every dosing of test compound with intervals of about 10 minutes between stimulations. In order to compare the effects of the administered compound, dose/response curves (log dose transformation) were constructed by computing, at the peak effect, the percent decrease in diastolic blood pressure and the percent inhibition of the increase in urethral pressure induced by NA.

[4] = test system: prostatic urethral pressure increase induced by noradrenaline; assay: Inhibition of urethral contractions induced by noradrenaline in anaesthetised dogs after i.v. administration; format: in vivo, dog; details: for UC ID50: active dose inhibiting by 50% the urethral contractions induced by noradrenaline: i.v. administration; for DBP/UC ratio between the active doses: i.v., DBP ED25 / UC ID50
Procedure: as §5

[5] = molecular target: T3, α1a-adrenoceptor (recombinant) (Homo sapiens, UniProt P35348); assay: Radioligand binding, cloned α1a-adrenoceptor ([3H]prazosin); details: read-out: Affinity for recombinant α1a-adrenoceptor, cloned receptors (Ki)
T3 construct: expressed in transfected cells
T3 sequence (P35348 1-466): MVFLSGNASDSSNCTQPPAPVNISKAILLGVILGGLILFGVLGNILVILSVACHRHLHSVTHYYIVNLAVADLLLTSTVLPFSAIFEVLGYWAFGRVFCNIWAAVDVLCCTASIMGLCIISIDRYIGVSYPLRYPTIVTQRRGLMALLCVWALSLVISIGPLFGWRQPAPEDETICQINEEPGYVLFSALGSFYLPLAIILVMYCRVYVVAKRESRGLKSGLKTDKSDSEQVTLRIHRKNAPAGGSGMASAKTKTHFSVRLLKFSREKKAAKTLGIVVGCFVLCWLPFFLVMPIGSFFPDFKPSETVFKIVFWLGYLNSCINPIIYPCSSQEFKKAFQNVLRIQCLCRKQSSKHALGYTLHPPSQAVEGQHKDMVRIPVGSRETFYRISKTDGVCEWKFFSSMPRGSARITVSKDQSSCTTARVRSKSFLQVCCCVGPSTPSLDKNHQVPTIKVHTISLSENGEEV
Procedure: as §1, §2, §3, §4

[6] = test system: α1-adrenergic receptor; details: background statement; cited from earlier work
[7] = molecular target: T4, 5HT1A-serotoninergic receptor (Homo sapiens, UniProt P08908); details: background statement; cited from earlier work
T4 sequence (P08908 1-422): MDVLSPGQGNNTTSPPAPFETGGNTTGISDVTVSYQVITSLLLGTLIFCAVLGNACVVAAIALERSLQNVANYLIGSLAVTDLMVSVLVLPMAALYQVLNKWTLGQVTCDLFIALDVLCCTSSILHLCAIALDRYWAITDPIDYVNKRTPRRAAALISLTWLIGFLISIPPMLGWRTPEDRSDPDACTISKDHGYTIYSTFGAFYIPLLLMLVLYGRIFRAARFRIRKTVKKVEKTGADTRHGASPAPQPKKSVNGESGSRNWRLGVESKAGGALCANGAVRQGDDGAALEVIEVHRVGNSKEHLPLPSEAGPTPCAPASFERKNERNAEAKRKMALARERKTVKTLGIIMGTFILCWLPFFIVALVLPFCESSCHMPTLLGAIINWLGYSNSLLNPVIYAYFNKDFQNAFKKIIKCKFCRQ

[8] = molecular target: T4, 5HT1A-serotoninergic receptor; assay: Radioligand binding, cloned 5-HT1A-serotoninergic receptor in HeLa membranes ([3H]8-OH-DPAT); set-up: expressed in transfected cells; host or cells: HeLa; details: cloned human 5-HT1A receptor in HeLa membranes, mean Ki, read-out: Affinity for 5-HT1A receptor, cloned receptors (Ki)
Procedure: HeLa cells were grown as monolayers in Dulbecco's Modified Eagle medium (DMEM) supplemented with 10% foetal calf serum and gentamicin (100 μg/mL), 5% CO2, at 37° C. The cells were detached from the growth flask at 95% confluence by a cell scraper and were lysed in ice-cold Tris-5-mM and EDTA-5-mM buffer (pH 7.4). The homogenates were centrifuged at 40000×g×20 minutes and the membranes were resuspended in a small volume of ice-cold buffer containing Tris 5 mM and EDTA 5 mM (pH 7.4), and immediately frozen and stored at −70° C. until use.
Non-specific binding was determined in the presence of 10 μM 5-HT. The incubation was stopped by addition of ice-cold Tris buffer and rapid filtration through 0.2% polyethyleneimine-pretreated Schleicher & Schuell filters.
as §4

[9] = test system: diastolic blood pressure; details: anaesthetised dogs, i.v.; data from Leonardi et al. 1997; cited from earlier work
[10] = test system: prostatic urethral pressure increase induced by noradrenaline; details: anaesthetised dogs, i.v.; data from Leonardi et al. 1997; cited from earlier work

| Compound | Ki [1] [nM] | Ki [2] [nM] | DBP ED25: active dose lowering diastolic blood pressure by 25% [3] [mg/kg] | UC ID50: active dose inhibiting by 50% the urethral contractions induced by noradrenaline [4] [mg/kg] | DBP/UC ratio between the active doses [4] | Ki [5] [nM] | Affinity for the α1-adrenergic receptor [6] | Affinity for the 5HT1A-serotoninergic receptor [7] | Ki [8] [nM] | DBP ED25: active dose lowering diastolic blood pressure by 25% [9] [mg/kg] | UC ID50: active dose inhibiting by 50% the urethral contractions induced by noradrenaline [10] [mg/kg] |
| --- | --- | --- | --- | --- | --- | --- | --- | --- | --- | --- | --- |
| Cc1c(-c2ccccc2)oc2c(C(=O)NCCCN3CCN(c4cc(Cl)ccc4OCC(F)(F)F)CC3)cccc2c1=O [Example 22, 8-<3-{4-[5-Chloro-2-(2,2,2-trifluoroethoxy)phenyl]-1-piperazinyl}-propylcarbamoyl>-3-methyl-4-oxo-2-phenyl-4H-1-benzopyran] | 3.07 | 1.9 | 1.266 | 0.0195 | 64.92 | 0.25 |  |  |  |  |  |
| Cc1c(-c2ccccc2)oc2c(C(=O)OCCN3CCCCC3)cccc2c1=O [Flavoxate, 3-methyl-4-oxo-2-phenyl-8-(2,N-piperidinylethoxycarbonyl)-4H-1-benzopyran] |  |  |  |  |  |  | practically devoid of affinity | practically devoid of affinity |  |  |  |
| Cc1c(-c2ccccc2)oc2c(C(=O)NCCCN3CCN(c4ccccc4OCC(F)(F)F)CC3)cccc2c1=O [Example 15, 8-<3-{4-[2-(2,2,2-Trifluoroethoxy)phenyl]-1-piperazinyl}propylcarbamoyl>-3-methyl-4-oxo-2-phenyl-4H-1-benzopyran] | 3.38 | 6 | 3.001 | 0.0049 |  | 0.07 |  |  | 0.71 |  |  |
| CCOc1ccccc1OCCN[C@H](C)Cc1ccc(OC)c(S(N)(=O)=O)c1 [tamsulosin] |  |  |  |  |  |  |  | comparable affinity |  |  |  |
| COc1ccccc1N1CCN(CCCNC(=O)c2cccc3c(=O)c(C)c(-c4ccccc4)oc23)CC1 [Compound A] |  |  |  |  |  |  |  |  |  | 0.243 | 0.0024 |
| COc1ccc(C#N)cc1N1CCN(CCCNC(=O)c2cccc3c(=O)c(C)c(-c4ccccc4)oc23)CC1 [Example 18, 8-{3-[4-(5-Cyano-2-methoxyphenyl)-1-piperazinyl]propylcarbamoyl}-3-methyl-4-oxo-2-phenyl-4H-1-benzopyran] | 45.4 | 100 | 1.2976 | 0.0341 | 38.05 | 4.18 |  |  | 677 |  |  |
